According to patent US5026836A, “6-sulfenamide, 6-sulfinamide and 6-sulfonamide purines, purine nucleosides, purine nucleotides, pharmaceutical compositions, and processes of making” (priority 1988, dated 1991):
Where “and” joins values, the source holds several entries; their conditions need not be identical. Identical values can stand only once. Entries after “also recorded” stand apart in the source; their conditions may differ. Like-named read-outs stand apart in the source and are kept apart here.

Assays:
[1] = tested on: L1210 cells; assay: Bioassay of viable L1210 cells in brain after intracranial inoculation and ip drug; format: in vivo, mouse; settings: for crossing of blood brain barrier / CNS penetration (words): mouse, in vivo
From the text: BDF1 mice were inoculated intracranially on day 0 with 1×10^5 L1210 cells. […] 24 hr after drug delivery the brains were collected, homogenized, and injected ip into untreated mice. Each mouse received the equivalent of half a brain. Thereafter, life span was monitored and, using inoculum-response data as a base of comparison, estimates were made of the numbers of viable cells in treated and control brains.

[2] = tested on: drug resistant cell lines; assay: Generation of drug resistant cell lines
[3] = tested on: human lung carcinoma LX-1; assay: Activity against human lung carcinoma LX-1; settings: in vivo
[4] = tested on: L1210/5FU cells; assay: 5-Fluorouracil resistant L1210 cells surviving treatment; format: in vivo, mouse
Method: In Examples G through K Compound 19 was tested against L1210 cell lines which had developed resistance to other known cancer chemotherapeutic agents.
In Example J, the results of which are shown in Table 10 below, Compound 19 was tested against 5-Fluorouracil resistant cells.

[5] = tested on: L1210 cells; assay: L1210 cells surviving treatment (% of original inoculum); format: in vivo, mouse
From the text: Values below 25% are considered capable of producing effective therapy, those below 10% are considered good and those below 5% are considered very good. This expresses the percent of the cells which survived treatment based upon the original cells in the inoculum. Those tests expressed as increases in life span (% ILS) indicate the increased life span of the drug treated group compared to a control group.
As an indicator of reproducible activity, compounds of the invention and other known cancer chemotherapeutic agents were screened against L1210 lymphoid leukemia in vivo utilizing the mouse as a test species. Normal NCI protocols for this test require 10^5 seed cells of the L1210 cell line. However for the purposes of tests with the L1210 cell line in testing the compounds of the invention for antitumor activity, a log greater, i.e. 10^6 cells were utilized.
Tables 2-a and 2-b illustrate a dose response for Compound 19 against L1210 inoculated mice expressed as both increased life span compared to control and as the number of cells of the original inoculum surviving drug treatment. As is evident from the various regimens of drug treatment shown in Tables 2-a and 2-b, effective therapeutic effects are noted and a dose response to Compound 19 is evident. […] Cytosine Arabinoside must be given every three hours. Test results are given utilizing standard protocols based on mean survival time and are expressed as T/C percentages (treated animals/control animals).

[6] = listed as 2-amino-9-β-D-ribofuranosyl-9H-purine-6-sulfinamide

Question: Which results are given for `Nc1nc([S+](N)[O-])c2ncn([C@@H]3O[C@H](CO)[C@@H](O)[C@H]3O)c2n1` (mixture of isomers) [Compound 19, 2-amino-9-β-D-ribofuranosyl-9H-purine-6-sulfinamide]?
Answer: Residual cells (% of control brain) ([1]; 24 hr after single ip dose (mg/kg): Methotrexate 12, Adriamycin 3, 6-Mercaptopurine 160, Cytosine Arabinoside 1200, Cyclophosphamide 140, Compound 19 173, Tiazofurin 1200, BCNU 20): 7.9%; intracranial activity ([1]; intracranial L1210): significant reduction in the number of neoplastic cells in the brain; also recorded: active intracranially; cell/half brain day 2, cell number ([1]; ip 173 mg/kg day 1): 261016 cell/half brain; cell/half brain day 2, log10 ([1]; ip 173 mg/kg day 1): 5.42 log10; change due to drug, cells ([1]; ip 173 mg/kg day 1, vs control): -92.08%; change due to drug, log10 ([1]; ip 173 mg/kg day 1, vs control): -1.10 log10; crossing of blood brain barrier / CNS penetration (words) [1]: effectively cross the blood brain barrier; crossing of blood brain barrier / CNS penetration (words) [1, 6]: able to penetrate the central nervous system; also recorded: penetrating the central nervous system; generation of drug resistant cell lines (words) [2]: has not been found to generate resistant cell lines; generation of drug resistant cell lines (words) [2, 6]: lack of generating resistant cell lines; also recorded: lack of resistance cell generation; activity against human lung carcinoma LX-1 [3]: No activity; L1210/5FU cells surviving (% of day zero inoculum) ([4]; ip 62 mg/kg/day, qd days 1-7): 933%; L1210/5FU cells surviving (% of day zero inoculum) ([4]; ip 104 mg/kg/day, qd days 1,3,5,7): 525%; L1210/5FU cells surviving (% of day zero inoculum) ([4]; ip 104 mg/kg/day, qd days 1-7): 3%; L1210/5FU cells surviving (% of day zero inoculum) ([4]; ip 173 mg/kg/day, qd days 1,3,5,7): 13%; activity against 5-Fluorouracil resistant cells ([4]; large dosages): highly active against these resistant cells; L1210 cells surviving day 7 treatment (% of original inoculum) ([5]; 22 mg/kg, bid days 1,3,5,7): 594%; L1210 cells surviving day 7 treatment (% of original inoculum) ([5]; 22 mg/kg, bid days 1,4,7): 9211%; L1210 cells surviving day 7 treatment (% of original inoculum) ([5]; 22 mg/kg, bid days 1-7): 343%; L1210 cells surviving day 7 treatment (% of original inoculum) ([5]; 37 mg/kg, bid days 1,3,5,7): 17%; L1210 cells surviving day 7 treatment (% of original inoculum) ([5]; 37 mg/kg, bid days 1,4,7): 87%; L1210 cells surviving day 7 treatment (% of original inoculum) ([5]; 37 mg/kg, bid days 1-7): 22%; L1210 cells surviving day 7 treatment (% of original inoculum) ([5]; 37 mg/kg, qd days 1,3,5,7): 3077%; L1210 cells surviving day 7 treatment (% of original inoculum) ([5]; 37 mg/kg, qd days 1,4,7): 15936%; L1210 cells surviving day 7 treatment (% of original inoculum) ([5]; 37 mg/kg, qd days 1-7): 115%; L1210 cells surviving day 7 treatment (% of original inoculum) ([5]; 62 mg/kg, bid days 1,3,5,7): 0.3%; L1210 cells surviving day 7 treatment (% of original inoculum) ([5]; 62 mg/kg, bid days 1,4,7): 5.6%; L1210 cells surviving day 7 treatment (% of original inoculum) ([5]; 62 mg/kg, qd days 1,3,5,7): 50%; L1210 cells surviving day 7 treatment (% of original inoculum) ([5]; 62 mg/kg, qd days 1,4,7): 594%; L1210 cells surviving treatment (% of original inoculum) ([5]; 62 mg/kg, qd days 1-7): 13%; L1210 cells surviving treatment (% of original inoculum) ([5]; 104 mg/kg, qd days 1,3,5,7): 17%; L1210 cells surviving treatment (% of original inoculum) ([5]; 104 mg/kg, qd days 1,4,7): 29%; L1210 cells surviving treatment (% of original inoculum) ([5]; 173 mg/kg, qd days 1,3,5,7): 0.2%; L1210 cells surviving treatment (% of original inoculum) ([5]; 173 mg/kg, qd days 1,4,7): 1.1%; RCP (Residual Cell Population) ([5]; ip 37 mg/kg/inj, bid days 1,3,5,7): .32; L1210 cells surviving (% of day zero inoculum) ([5]; ip 62 mg/kg, bid day 1): 0.8%; L1210 cells surviving (% of day zero inoculum) ([5]; ip 62 mg/kg, qd day 1, 62 mg/kg): 0.8% and 8.5%; L1210 cells surviving (% of day zero inoculum) ([5]; ip 62 mg/kg, tid day 1): 0.4%; RCP (Residual Cell Population) ([5]; ip 62 mg/kg/inj, bid days 1,4,7): .14; L1210 cells surviving (% of day zero inoculum) ([5]; ip 104 mg/kg, qd day 1): 5.4%; L1210 cells surviving treatment (% of day zero inoculum) ([5]; ip 104 mg/kg/day, qd days 1-7, 1 long term survivor not included): 0.04%; L1210 cells surviving (% of day zero inoculum) ([5]; ip 173 mg/kg, qd day 1): 1.4%; RCP (Residual Cell Population) ([5]; oral 37 mg/kg/inj, bid days 1,3,5,7): 3.73; RCP (Residual Cell Population) ([5]; oral 62 mg/kg/inj, bid days 1,4,7): 8.48
